Data: PMC11476552, “Synthesis and Preliminary Studies for In Vitro Biological Activity of Two New Water-Soluble Bis(thio)carbohydrazones and Their Copper(II) and Zinc(II) Complexes” (International Journal of Molecular Sciences, 2024)

Experiments:
Assay type in all cases: physicochemical
[1] = Solubility of the ligands and complexes in water; settings: for solubility: r.t.
Source text: Elemental (see experimental section) and TGA (Figure S5) analyses confirmed the formulae Na2H4L^1∙5.5H2O (bis-TCH) and Na2H4L^2∙5H2O (bis-CH).

[2] = Zn(II) complex formation equilibria, spectrophotometric titration at pH 7.4; settings: for Log β([Zn2L]) / Log β([ZnL]): conditional formation constant, aqueous 25 mM HEPES buffer, pH 7.4, 25 °C
Source text: The best fit was obtained using a speciation model that consists of the sequential formation of a monometallic [ZnL] and a bimetallic [Zn2L] species. In fact, two families of spectra were observed, according to the presence in solution of two complex species and the free ligand. The first family of spectra (Zn/L = 0–1) (Figure S25) is characterized by a decrease in intensity for the bands of the free ligand at 239, 315, and 450 nm, and the appearance of bands at 251 and 394 nm. There are four isosbestic points at 245, 280, 371, and 429 nm. The second family of spectra (Zn/L = 1–2) (Figure S26) presents redshift and increase in absorbance of the band at 251 nm, the disappearance of the band at 349 nm, and redshift with decrease of absorbance of the band at 394 nm. […] The log β values for the formation of Zn(II) complexes with Na2H4L^1 · 5.5 H2O can be estimated (Table 4), and a representative distribution diagram is reported in Figure S27.
The spectra are characterized by four bands at ca. 238, 255, 305, and 371 nm, with those at 255 and 371 nm increasing in intensity with the addition of metal ions. The presence of these separated absorption bands led to the observation of three apparent isosbestic points at 243, 276, and 345 nm. Analogously to the Zn(II)/bis-thiocarbohydrazone system, the best fit was obtained using a speciation model that consists of the sequential formation of a monometallic [ZnL] and a bimetallic [Zn2L] species. In Figure 8, the absorbance values at 307 nm as a function of the equivalents of added Zn(II) are reported. The absorbance trend presents two almost linear regions between 0 and 1 eq. of Zn(II) and between 1 and 2 eq., respectively. This is, in fact, consistent with the sequential formation of two species with Zn:L ratios of 1:1 and 2:1, respectively. […] This behaviour is, perhaps, to be expected, taking into account the softer nature of the thiocarbohydrazonic group.
Samples used for the study of protonation equilibria of the ligands were prepared as follows. […] For each solution, the absorption spectrum was collected in the 220–600 nm range at 298.2 K. The spectral data collection was carried out immediately after the preparation of the samples and repeated after 3 and 10 min for all the samples at different pH values to check the stability of the ligand. […] The complex formation equilibria at pH 2.5 or 7.4 of bis-TCH and bis-CH with Cu(II) and Zn(II) ions were studied by direct spectrophotometric titrations of solutions of the ligands with the metal ions, and the samples were prepared as follows. Appropriate aliquots of the stock solutions of the ligands were diluted in a quartz cuvette of 1 cm path length using HEPES buffer (pH 7.4) or by adding HCl aqueous solution (pH 2.5) to obtain ca. 17 µM ligand solutions in a total volume of 2.6 mL. The obtained ligand solutions were titrated with Cu(II) or Zn(II) titrant solutions (ca. 442 µM) up to a metal/ligand ratio of 3 for the studies at pH 7.4 and up to a Cu(II):ligand ratio of 5 (for Na2H4L^1 · 5.5 H2O) and 7 (for Na2H4L^2 · 5 H2O) for the studies at pH 2.5. […]
(§1) The logarithms of the apparent stability constants were calculated from the spectral dataset using HypSpec2014 software. […] All equilibria were studied at fixed pH, and therefore the determined log β values are logarithms of conditional formation constants. […] Speciation diagrams were calculated using the Hyss2009 software. […]

[3] = Cu(II) complex formation equilibria, spectrophotometric titration at pH 2.5; settings: conditional formation constant, aqueous solution, pH = 2.5, T = 298.2 K
Source text: The copper(II) complexation equilibria of bis-TCH were studied by means of spectrophotometric titration of the ligand with Cu(II) in aqueous solution at pH = 2.5 and pH = 7.4. […] For this reason, in the speciation models, L identifies the ligand irrespective of its protonation state, and the charges of the complexes are omitted. […] The two bands at 237 and 318 nm, observed in the spectrum of the free ligand, decrease in absorbance upon addition of Cu(II), while the two bands at 259 and 400 nm increase.
A plot of absorbance at 280 nm vs. Cu(II)/ligand molar ratio (Figure 3, inset) quite clearly evidenced that two equivalence points are present: one at ca. 0.75 eq. and one at ca. 1.5 eq. of metal added, corresponding to the formation of [Cu3L4] and [Cu3L2] species. […] The [Cu3L4] species could have a simple structural explanation considering some peculiar characters of bis-TCH. This ligand, in fact, adds to the coordinating possibilities of the central skeleton (ONSNO) two sulfonic groups, which are deprotonated, such that they can also behave as counteranions. Moreover, both the ligands have a great affinity for Cu(II) ions, but bis-TCH is more acidic than bis-CH, and this implies that it more stably coordinates Cu(II) already at pH 2.5. It will be seen further in the discussion that in the case of bis-CH at pH = 2.5, the [CuL] species is identified, while, at the same pH, bis-TCH is able to compete more efficiently for the Cu(II) ions in solution, and the result is [Cu3L4], a species with a higher ligand/metal ratio (Figure S19).
The copper(II) complexation equilibria of bis-CH were studied by means of spectrophotometric titration at pH = 2.5 and 7.4. […] The best fit of the spectrophotometric data was obtained by considering the formation of [CuL] and [Cu2L] species, with log β values of 6.26(2) and 11.30(2), respectively (Table 2).
Samples used for the study of protonation equilibria of the ligands were prepared as follows. […] For each solution, the absorption spectrum was collected in the 220–600 nm range at 298.2 K. The spectral data collection was carried out immediately after the preparation of the samples and repeated after 3 and 10 min for all the samples at different pH values to check the stability of the ligand. […]
as §1

SMILES	solubility in water (in words) [1]	solubility [1] [mg/mL]	Log β([Zn2L]) [2]	Log β([ZnL]) [2]	Log β([Cu2L]) [3]	Log β([CuL]) [3]	higher stability of Zn(II) complexes versus Na2H4L^2 · 5 H2O (difference in log β, both species) ([2]; pH 7.4, [ZnL] and [Zn2L])	Log β([Cu3L2]) [3]	Log β([Cu3L4]) [3]
COc1cc(S(=O)(=O)[O-])cc(/C=N/NC(=O)N/N=C/c2cc(S(=O)(=O)[O-])cc(OC)c2O)c1O.[Na+].[Na+] [bis-CH, Bis-(sodium 3-methoxy-5-sulfonate-salicylaldehyde)-carbohydrazone]	very soluble in water	~23	13.61(4)	7.08(3)	11.30(2)	6.26(2)	–	–	–
COc1cc(S(=O)(=O)[O-])cc(/C=N/NC(=S)N/N=C/c2cc(S(=O)(=O)[O-])cc(OC)c2O)c1O.[Na+].[Na+] [bis-TCH, Bis-(sodium 3-methoxy-5-sulfonate-salicylaldehyde)-thiocarbohydrazone]	very soluble in water	~10	15.29(10)	8.40(6)	–	–	ca. 1.5 log units	26.4(1)	38.6(1)
